According to ChEMBL document CHEMBL4665634, “Inhibiting Aβ toxicity in Alzheimer's disease by a pyridine amine derivative” (Eur J Med Chem, 2019):

Key:
[1] = Metal chelating activity assessed as Cu2+-compound complex formation by measuring binding constant in 0.1 M KNO3 at 25 degreeC
[2] = Metal chelating activity assessed as Zn2+-compound complex formation by measuring binding constant in 0.1 M KNO3 at 25 degreeC

log K [1]: 9.3
log K [2]: 7.6
Compound: c1ccc(CNCc2ccccn2)nc1
